In US11566007B2, “Ras inhibitors” (Revolution Medicines, Inc., priority 2019, dated 2023):

What was measured:
NRAS WT = NRAS WT (Homo sapiens (Human), UniProt P01111+P62937); assay: Ras-Raf (BRAF RBD) disruption / FRET / MOA assay, NRAS WT; type: biochemical; conditions: read-out: IC50* NRAS WT FRET data
In short: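 TR-FRET disruption of nucleotide-loaded Ras binding to BRAF RBD via compound-driven ternary complex with cyclophilin A. Compound as 10-point 3-fold series from 30 μM final, 3 h at 25° C, then anti-His Eu-W1024 (10 nM) and anti-GST allophycocyanin (50 nM) for 1.5 h. IC50 from decreased FRET ratio versus DMSO.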

KRAS G12S = KRAS G12S (Homo sapiens (Human), UniProt P01116+P62937, G12S); assay: Ras-Raf (BRAF RBD) disruption / FRET / MOA assay, KRAS G12S; type: biochemical; conditions: Ras-Raf disruption/FRET/MOA assay; class symbols; read-out: KRAS G12S FRET data IC50
In short: (§1)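 Compounds, top final concentration 30 μM in 10-point 3-fold series, incubated 3 hours at 25° C with nucleotide-loaded Ras, cyclophilin A and BRAF RBD.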

KRAS G12V = KRAS G12V (Homo sapiens (Human), UniProt P01116+P62937, G12V); assay: Ras-Raf (BRAF RBD) disruption / FRET / MOA assay, KRAS G12V; type: biochemical; conditions: read-out: IC50* KRAS G12V FRET data
In short: as §1

NCI-H358 (K-Ras G12C) = assay: CellTiter-Glo cell viability assay, NCI-H358; type: cell-based, human; conditions: Homo sapiens, NCI-H358, 120 h, NCI-H358, 5-day treatment; class symbols; read-out: Additional H358 Cell Viability assay data (K-Ras G12C, IC50)
In short: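 Steps: compound dispensed into wells holding cells; incubation to day 5; ~30 min room-temperature equilibration; luminescence read; sample signal divided by mean DMSO signal, times 100; four-parameter logistic curve fit.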

KRAS WT = KRAS WT (Homo sapiens (Human), UniProt P01116+P62937); assay: Ras-Raf (BRAF RBD) disruption / FRET / MOA assay, KRAS WT; type: biochemical; conditions: read-out: IC50* KRAS WT FRET data
In short: as §1

K-Ras G13C = K-Ras G13C (Homo sapiens (Human), UniProt P01116+P62937, G13C); assay: Ras-Raf (BRAF RBD) disruption / FRET / MOA assay, KRAS G13C; type: biochemical; conditions: KRAS G13C; Ras-Raf disruption/FRET/MOA assay; read-out: IC50* KRAS G13C FRET data
In short: as §1

K-Ras G12C = K-Ras G12C (Homo sapiens (Human), UniProt P01116+P62937, G12C); assay: Ras-Raf (BRAF RBD) disruption / FRET / MOA assay, KRAS G12C; type: biochemical; conditions: KRAS G12C; Ras-Raf disruption/FRET/MOA assay; read-out: IC50* KRAS G12C FRET data
In short: as §1

KRAS G13D = KRAS G13D (Homo sapiens (Human), UniProt P01116+P62937, G13D); assay: Ras-Raf (BRAF RBD) disruption / FRET / MOA assay, KRAS G13D; type: biochemical; conditions: read-out: IC50* KRAS G13D FRET data
In short: as §1

Sequence of K-Ras G13C (P01116-2 other isoform, or with tags, fused parts or gaps G13C): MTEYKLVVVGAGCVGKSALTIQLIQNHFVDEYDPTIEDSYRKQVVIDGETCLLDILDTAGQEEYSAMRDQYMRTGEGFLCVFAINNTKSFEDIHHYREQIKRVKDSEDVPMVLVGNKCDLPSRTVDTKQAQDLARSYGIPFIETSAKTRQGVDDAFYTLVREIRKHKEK
Sequence of K-Ras G13C (P62937 whole entry): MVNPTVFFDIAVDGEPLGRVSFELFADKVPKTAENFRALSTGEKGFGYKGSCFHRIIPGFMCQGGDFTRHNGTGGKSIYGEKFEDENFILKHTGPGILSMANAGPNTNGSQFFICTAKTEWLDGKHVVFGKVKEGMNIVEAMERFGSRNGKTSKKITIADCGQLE
Sequence of KRAS G13D (P01116-2 other isoform, or with tags, fused parts or gaps G13D): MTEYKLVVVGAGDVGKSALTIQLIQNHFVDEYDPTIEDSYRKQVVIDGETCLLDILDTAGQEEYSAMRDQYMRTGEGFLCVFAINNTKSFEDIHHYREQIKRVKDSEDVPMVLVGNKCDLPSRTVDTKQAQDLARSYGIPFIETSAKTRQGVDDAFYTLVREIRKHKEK
Sequence of KRAS G13D (P62937 whole entry): as the sequence (P62937 whole entry) above
Sequence of KRAS G12V (P01116-2 other isoform, or with tags, fused parts or gaps G12V): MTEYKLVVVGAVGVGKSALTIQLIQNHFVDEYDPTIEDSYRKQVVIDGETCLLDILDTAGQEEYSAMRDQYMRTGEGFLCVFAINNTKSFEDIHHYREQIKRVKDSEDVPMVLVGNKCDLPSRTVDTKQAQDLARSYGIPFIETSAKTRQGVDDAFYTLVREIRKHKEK
Sequence of KRAS G12V (P62937 whole entry): as the sequence (P62937 whole entry) above
Sequence of K-Ras G12C (P01116-2 other isoform, or with tags, fused parts or gaps G12C): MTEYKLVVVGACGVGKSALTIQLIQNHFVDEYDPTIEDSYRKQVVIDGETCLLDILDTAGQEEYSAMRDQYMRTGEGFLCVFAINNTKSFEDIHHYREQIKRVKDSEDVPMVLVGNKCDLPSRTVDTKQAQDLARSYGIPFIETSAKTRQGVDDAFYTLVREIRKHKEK
Sequence of K-Ras G12C (P62937 whole entry): as the sequence (P62937 whole entry) above
Sequence of KRAS G12S (P01116-2 other isoform, or with tags, fused parts or gaps G12S): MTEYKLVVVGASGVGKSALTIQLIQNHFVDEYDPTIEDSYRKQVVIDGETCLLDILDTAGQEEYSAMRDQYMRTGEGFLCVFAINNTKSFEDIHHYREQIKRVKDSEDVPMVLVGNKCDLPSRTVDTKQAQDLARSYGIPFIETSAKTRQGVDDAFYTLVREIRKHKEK
Sequence of KRAS G12S (P62937 whole entry): as the sequence (P62937 whole entry) above
Sequence of NRAS WT (P01111 whole entry): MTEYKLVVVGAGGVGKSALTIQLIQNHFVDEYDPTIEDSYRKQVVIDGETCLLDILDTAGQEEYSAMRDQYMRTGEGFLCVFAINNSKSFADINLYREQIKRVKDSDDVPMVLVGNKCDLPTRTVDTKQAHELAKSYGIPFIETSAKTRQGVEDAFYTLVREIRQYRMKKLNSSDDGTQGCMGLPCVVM
Sequence of NRAS WT (P62937 whole entry): as the sequence (P62937 whole entry) above
Sequence of KRAS WT (P01116-2 other isoform, or with tags, fused parts or gaps): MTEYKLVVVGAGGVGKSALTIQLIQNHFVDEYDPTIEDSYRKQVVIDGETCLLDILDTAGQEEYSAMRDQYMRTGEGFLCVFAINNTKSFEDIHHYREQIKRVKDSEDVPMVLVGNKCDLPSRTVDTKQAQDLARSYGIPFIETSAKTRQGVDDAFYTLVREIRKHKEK
Sequence of KRAS WT (P62937 whole entry): as the sequence (P62937 whole entry) above

Structure (SMILES) | IC50 (NRAS WT) | IC50 (KRAS G12S) | IC50 (KRAS G12V) | IC50 (NCI-H358 (K-Ras G12C)) | IC50 (KRAS WT) | IC50 (K-Ras G13C) | IC50 (K-Ras G12C) | IC50 (KRAS G13D)
CCn1c(-c2cccnc2[C@H](C)OC)c2c3cc(ccc31)-c1csc(n1)C[C@H](NC(=O)CCO[C@H]1CCN(C(=O)C#CC(C)(C)N3CCC3)C1)C(=O)N1CCC[C@H](N1)C(=O)OCC(C)(C)C2 (atropisomer, axis not shown) [Example A381] | 1000 to 10000 nM | 1000 to 10000 nM | 1000 to 10000 nM | 10 to 100 nM | 1000 to 10000 nM | 1000 to 10000 nM | < 10 nM | 1000 to 10000 nM
CCn1c(-c2cccnc2[C@H](C)OC)c2c3cc(ccc31)-c1csc(n1)C[C@H](NC(=O)[C@H](C(C)C)N(C)C(=O)N(C)C1CN(C(=O)/C=C/[C@H]3CCCN3C)C1)C(=O)N1CCC[C@H](N1)C(=O)OCC(C)(C)C2 (atropisomer, axis not shown) [Example A729] | 100 to 1000 nM | 100 to 1000 nM | 1000 to 10000 nM | 100 to 1000 nM | 100 to 1000 nM | 100 to 1000 nM | 100 to 1000 nM | 100 to 1000 nM
C=CC(=O)N1CC[C@H](C(=O)N(C)[C@H](C(=O)N[C@H]2Cc3cccc(n3)-c3ccc4c(c3)c(c(-c3cccnc3[C@H](C)OC)n4CC)CC(C)(C)COC(=O)[C@@H]3CCCN(N3)C2=O)C(C)C)C1 (atropisomer, axis not shown) [Example A442] | > 10000 nM | 1000 to 10000 nM | > 10000 nM | 10 to 100 nM | > 10000 nM | 1000 to 10000 nM | 100 to 1000 nM | > 10000 nM
C=CC(=O)N1CC[C@H](C(=O)N(C)[C@H](C(=O)N[C@H]2Cc3cc(O)cc(c3)-c3ccc4c(c3)c(c(-c3cccc5c3COC5)n4CC)CC(C)(C)COC(=O)[C@@H]3CCCN(N3)C2=O)C(C)C)C1 [Example A227] | 1000 to 10000 nM | 1000 to 10000 nM | 1000 to 10000 nM | 100 to 1000 nM | 1000 to 10000 nM | 1000 to 10000 nM | 100 to 1000 nM | > 10000 nM
CCn1c(-c2cccnc2[C@H](C)OC)c2c3cc(ccc31)-c1csc(n1)C[C@H](NC(=O)[C@H](C(C)C)N(C)C(=O)N1CCN(C(=O)/C=C/CN(C)C)C[C@@H]1C)C(=O)N1CCC[C@H](N1)C(=O)OCC(C)(C)C2 (atropisomer, axis not shown) [Example A709] | 10 to 100 nM | 100 to 1000 nM | 100 to 1000 nM | 10 to 100 nM | 100 to 1000 nM | 100 to 1000 nM | 10 to 100 nM | 100 to 1000 nM
C=CC(=O)N1CC[C@H](C(=O)N(C)[C@H](C(=O)N[C@H]2Cc3cccc(c3)-c3ccc4c(c3)c(c(-c3cc(C5CN(C)C5)cnc3[C@H](C)OC)n4CC)CC(C)(C)COC(=O)[C@@H]3CCCN(N3)C2=O)C(C)C)C1 (atropisomer, axis not shown) [Example A392] | 1000 to 10000 nM | 1000 to 10000 nM | 1000 to 10000 nM | 10 to 100 nM | 1000 to 10000 nM | 1000 to 10000 nM | 100 to 1000 nM | > 10000 nM
C=CC(=O)N1CC[C@H](C(=O)N(C)[C@H](C(=O)N[C@H]2Cc3cc(O)cc(c3)-c3ccc4c(c3)c(c(-c3cnc(N(C)C)s3)n4CC)CC(C)(C)COC(=O)[C@@H]3CCCN(N3)C2=O)C(C)C)C1 [Example A302] | > 10000 nM | 1000 to 10000 nM | 1000 to 10000 nM | 10 to 100 nM | 1000 to 10000 nM | 100 to 1000 nM | 100 to 1000 nM | 1000 to 10000 nM
C=CC(=O)N(C)[C@@H]1C[C@@H](C)N(C(=O)N(C)[C@H](C(=O)N[C@H]2Cc3nc(cs3)-c3ccc4c(c3)c(c(-c3cccnc3[C@H](C)OC)n4CC)CC(C)(C)COC(=O)[C@@H]3CCCN(N3)C2=O)C(C)C)C1 (atropisomer, axis not shown) [Example A634] | 100 to 1000 nM | 100 to 1000 nM | 100 to 1000 nM | 10 to 100 nM | 100 to 1000 nM | 100 to 1000 nM | 10 to 100 nM | 1000 to 10000 nM
CCn1c(-c2cccnc2[C@H](C)OC)c2c3cc(ccc31)N1CCO[C@@H](C[C@H](NC(=O)[C@H](C(C)C)N(C)C(=O)C3(F)CCN(C(=O)/C=C/CN(C)C)CC3)C(=O)N3CCC[C@H](N3)C(=O)OCC(C)(C)C2)C1 (atropisomer, axis not shown) [Example A645] | 1000 to 10000 nM | 1000 to 10000 nM | 1000 to 10000 nM | 10 to 100 nM | 1000 to 10000 nM | 100 to 1000 nM | 10 to 100 nM | 1000 to 10000 nM
C=CC(=O)N(C)[C@H]1CN(C(=O)N(C)[C@H](C(=O)N[C@H]2Cc3nc(cs3)-c3ccc4c(c3)c(c(-c3cccnc3[C@H](C)OC)n4CC)CC(C)(C)COC(=O)[C@@H]3CCCN(N3)C2=O)C(C)C)C[C@@H]1F (atropisomer, axis not shown) [Example A632] | 100 to 1000 nM | 100 to 1000 nM | 100 to 1000 nM | 100 to 1000 nM | 100 to 1000 nM | 10 to 100 nM | 10 to 100 nM | 1000 to 10000 nM
C=CC(=O)N1CC[C@H](C(=O)N2CCCCC[C@H]2C(=O)N[C@H]2Cc3nc(cs3)-c3ccc4c(c3)c(c(-c3cccnc3[C@H](C)OC)n4CC)CC(C)(C)COC(=O)[C@@H]3CCCN(N3)C2=O)C1 (atropisomer, axis not shown) [Example A495] | 1000 to 10000 nM | 1000 to 10000 nM | 1000 to 10000 nM | 10 to 100 nM | 1000 to 10000 nM | 1000 to 10000 nM | 100 to 1000 nM | > 10000 nM
C=CC(=O)N1CC[C@@]2(C1)OCN([C@H](C(=O)N[C@H]1Cc3cccc(c3)-c3ccc4c(c3)c(c(-c3cccnc3[C@H](C)OC)n4CC)CC(C)(C)COC(=O)[C@@H]3CCCN(N3)C1=O)C(C)C)C2=O (atropisomer, axis not shown) [Example A358] | 100 to 1000 nM | 1000 to 10000 nM | 1000 to 10000 nM | 10 to 100 nM | 100 to 1000 nM | 100 to 1000 nM | 100 to 1000 nM | 1000 to 10000 nM
C=CS(=O)(=O)N1CCC(C(=O)N(C)[C@H](C(=O)N[C@H]2Cc3cccc(c3)-c3ccc4c(c3)c(c(-c3cncnc3)n4CC)CC(C)(C)COC(=O)[C@@H]3CCCN(N3)C2=O)C(C)C)C1 (single isomer, unassigned) [Example A171] | > 10000 nM | > 10000 nM | > 10000 nM | 100 to 1000 nM | > 10000 nM | 1000 to 10000 nM | 1000 to 10000 nM | > 10000 nM
C=CC(=O)N1CC[C@H](C(=O)N(C)[C@H](C(=O)N[C@H]2Cc3csc(n3)-c3ccc4c(c3)c(c(-c3cccnc3[C@H](C)OC)n4CC)CC(C)(C)COC(=O)[C@@H]3CCCN(N3)C2=O)C(C)C)C1 (atropisomer, axis not shown) [Example A330] | 1000 to 10000 nM | 1000 to 10000 nM | 1000 to 10000 nM | 10 to 100 nM | 1000 to 10000 nM | 1000 to 10000 nM | 100 to 1000 nM | 1000 to 10000 nM
C=CC(=O)N(C)CCN1CCN(C(=O)N(C)[C@H](C(=O)N[C@H]2Cc3cccc(c3)-c3ccc4c(c3)c(c(-c3cccnc3[C@H](C)OC)n4CC)CC(C)(C)COC(=O)[C@@H]3CCCN(N3)C2=O)C(C)C)C[C@H]1C (atropisomer, axis not shown) [Example A553] | 1000 to 10000 nM | 1000 to 10000 nM | 1000 to 10000 nM | 100 to 1000 nM | 100 to 1000 nM | 10 to 100 nM | 100 to 1000 nM | 1000 to 10000 nM
C=CC(=O)N1CCOC2(CCN(C(=O)N(C)[C@H](C(=O)N[C@H]3C[C@H]4CN(CCO4)c4ccc5c(c4)c(c(-c4cccnc4[C@H](C)OC)n5CC)CC(C)(C)COC(=O)[C@@H]4CCCN(N4)C3=O)C(C)C)CC2)C1 [Example A564] | 100 to 1000 nM | 100 to 1000 nM | 100 to 1000 nM | 10 to 100 nM | 100 to 1000 nM | 10 to 100 nM | 100 to 1000 nM | 1000 to 10000 nM
CC#CC(=O)N1CC2(CCN2C(=O)N(C)[C@H](C(=O)N[C@H]2Cc3nc(cs3)-c3ccc4c(c3)c(c(-c3cccnc3[C@H](C)OC)n4CC)CC(C)(C)COC(=O)[C@@H]3CCCN(N3)C2=O)C(C)C)C1 (atropisomer, axis not shown) [Example A655] | 100 to 1000 nM | 100 to 1000 nM | 100 to 1000 nM | 10 to 100 nM | 100 to 1000 nM | 100 to 1000 nM | 100 to 1000 nM | 100 to 1000 nM
